Entries after “also recorded” stand apart in the source; their conditions may differ.
What was measured:
[1] = system: HER2+ tumors; conditions: patients with progressive disease after trastuzumab therapy; cited from earlier work
[2] = system: BJAB Burkitt lymphoma cells; assay: MTS viability assay, DOX followed by PU-H71; format: cell-based; conditions: Homo sapiens, 24 h
Experimental: BJAB Burkitt lymphoma cells were exposed to serial dilutions of DOX for 24 h prior to addition of 500 nM PU-H71. Viability was measured 24 h later using standard MTS assay. Sextuplicate data points were averaged and normalized against untreated (DOX alone) or PU-H71-treated (DOX followed by PU-H71) controls. Data is presented as mean±SD.

[3] = system: SUDHL4 DLBCL cells; assay: Cell cycle analysis and caspase-3 activation by flow cytometry; format: cell-based
Experimental: To further establish the potency of a combination of a proteotoxic agent and an Hsp90 inhibitor, in vitro assays were performed on lymphoma cells treated with Doxorubicin (DOX). DOX is a topoisomerase inhibitor that intercalates into DNA to induce DNA damage and oxidative stress. The interaction of DOX and PU-H71 was evaluated using standard criteria for synergy, the median effect/Combination Index (CI) method. A dose-response matrix was used as a means to systematically test multiple ratios of DOX:PU-H71 for interaction in sequential or simultaneous schedules of exposure. […] The effect of each drug and their combination on cell cycle and apoptosis in lymphoma cells with low to medium epichaperome levels, such as the SUDHL4 DLBCL cells was evaluated (FIG. 18c).
SUDHL4 DLBCL cells were exposed to PU-H71 and DOX or combinations in different schedules as indicated. Caspase-3 activation was measured by flow cytometry using PE-conjugated anti-active Caspase-3 antibody (FIG. 18C). Cell cycle analysis was performed in parallel and is shown in the inset at top left of each scatterplot. Frequency of hypodiploid population is indicated.

[4] = system: cancer cell lines; assay: Cell viability by Annexin V staining in type 1 and type 2 cancer cells; format: cell-based; conditions: for apoptotic sensitivity, type 1 tumors / apoptotic sensitivity, type 2 tumors: Annexin V staining
Experimental: (FIG. 3c). Cells were treated with 1 μM PU-H71-FITC. At 4 h post treatment, cells were washed twice with FACS buffer. To measure PU-H71-FITC binding in live cells, cells were stained with 7-AAD in FACS buffer at room temperature for 10 min, and analyzed by flow cytometry (BD Biosciences). Cell viability was determined using Annexin v staining. […]

[5] = system: BT20 triple negative breast cancer cells; assay: Incucyte kinetic growth assay; format: cell-based; conditions: for effect on cell confluency, agent alone: 2 μM paclitaxel or 5 μM PU-H71; for remaining live cells and regrowth after removal of agents: between 130 h and approximately 230 h
Experimental: MDA-MD-231 and BT20 triple negative breast cancer cells were seeded in tissue culture treated dishes. Once confluent to approximately 50% of the vessel surface area, the cells were treated with medium containing 2 μM paclitaxel, 5 μM PU-H71, vehicle (DMSO), or a combination of 2 μM paclitaxel and 5 μM PU-H71 (together or sequential). Cells were grown in these conditions in an Essen IncuCyte housed in a standard cell culture incubator. Nine images per condition were collected every 2 hours for a total of 316 hours. After 24 hours under the aforementioned treatment conditions, paclitaxel treated cells were treated with medium containing 5 μM PU-H71 or the control vehicle, PU-H71 treated cells were treated with medium containing 2 μM paclitaxel or control vehicle, and the cells treated with vehicle and the combination of PU-H71 with paclitaxel were treated with medium containing control vehicle. All secondary drug additions were added to existing medium containing the original treatment. The existing medium was additionally diluted twice more with medium containing the control vehicle; each dilution occurring 24 hours after the previous. After 96 hours in culture, the medium was aspirated from each well and replaced with cell-appropriate medium with no pharmacological agents. As stated above, cells were monitored for a total of 316 hours (i.e., […] after complete removal of pharmacological agents).

[6] = system: HSP90 in the epichaperome complex; assay: PU-H71-beads depletion of HSP90 species from cell lysates, isoelectric focusing; format: binding
From the text: The supernatant was applied to native gel separation followed by immunoblotting with HSP90 and other epichaperome complex components (left, example for MDAMB468) or nanopro isoelectric focusing and immunoblotting ([…], shown for all 3 cells). Duplicates of each experimental condition are presented. Data were graphed to indicate the relative binding affinity of PU-H71 to the HSP90 species as expressed in the 3 cell types.

[7] = system: triple-negative breast cancer mouse models; conditions: pre-clinical; cited from earlier work
[8] = system: primary breast tumors; assay: Ex vivo treatment of primary breast cancer specimens; format: cell-based; conditions: 24 h
Experimental: Primary breast cancer specimens. Patient tissue procurement was authorized through institutionally review board-approved bio-specimen protocol#09-121 at Memorial Sloan Kettering Cancer Centre (New York, N.Y.). Specimens were treated for 24 h with the indicated concentrations of PU-H71. Following treatment, slices were fixed in 4% formalin solution for 1 h then stored in 70% ethanol. For tissue analysis, slices were embedded in paraffin, sectioned, slide-mounted, and stained with haematoxylin and eosin. Tissue slides were assessed blindly by a breast cancer pathologist who gauged the apoptosis present in the tumor as well as any effect to normal tissue.
Primary breast tumor protocol. The ex vivo protocol employed on this study is depicted schematically in FIG. 4. Sample preparation and treatment are detailed in Ex vivo treatment response of primary tumors and/or associated metastases for preclinical and clinical development of therapeutics. Corben A D, Uddin M M, Crawford B, Farooq M, Modi S, Gerecitano J, Chiosis G, Alpaugh M L. J Vis Exp. 2014 Oct 2; (92):e52157.

[9] = system: primary acute myeloid leukemias; assay: Ex vivo treatment of primary acute myeloid leukemia samples; format: cell-based
Experimental: Primary acute myeloid leukemia. Cryopreserved primary AML samples were obtained with informed consent and Weill Cornell Medical College institutional review board approval, and from the University of Pennsylvania Stem Cell & Xenograft Core Facility.
Epichaperome abundance determined by the PU-FITC flow cytometry assay. Cells were treated with 1 μM PU-H71-FITC. At 4 h post treatment, cells were washed twice with FACS buffer (PBS-0.5% FBS). To measure PU-H71-FITC binding in live cells, cells were stained with 7-AAD in FACS buffer at room temperature for 10 min, and analyzed by using an BD-LSR-II or BD-Canto cytometry (BD Biosciences). Cell viability was determined using Annexin-V staining. At 48 h post 1 μM PUH71 treatment, cells were stained with Annexin-V BD Horizon-V450 (BD Biosciences) and 7-AAD in Annexin-V buffer, and subjected to flow cytometry to measure viability determined by AnnexinV/7AAD double negative gates.

[10] = Safety and body weight monitoring in tumor-bearing mice; format: in vivo
Experimental: Pre-formulated Abraxane® (5 mg/ml) was used.
Five mice were administered the vehicle control.

[11] = system: epichaperome; assay: Induction of epichaperome, native gel of HSP90 complexes in treated cancer cells; format: cell-based; conditions: cells pretreated with paclitaxel for 1 h then drug washed off
Experimental: Cells were cultured using the procedure described in Example 1. The proteotoxic stressor (e.g., paclitaxel or bortezomib) was added for 6 hours and then the cells were lysed. The homogenate was applied for separation on a gel under native conditions.
For the wash off studies (FIG. 8d), cells were cultured and then treated with paclitaxel (referred to as PAC in figure) for 1-2 hours to mimic in vivo conditions. The paclitaxel was then washed off to determine how long the epichaperome is maintained in vitro.

CO[C@H]1/C=C\C=C(/C)C(=O)NC2=CC(=O)C(NCCN(C)C)=C(C[C@@H](C)C[C@H](OC)[C@H](O)[C@@H](C)/C=C(\C)[C@@H]1OC(N)=O)C2=O [17-DMAG]
clinical response [1]: elicited responses

COc1cccc2c1C(=O)c1c(O)c3c(c(O)c1C2=O)C[C@@](O)(C(=O)CO)C[C@@H]3O[C@H]1C[C@H](N)[C@H](O)[C@H](C)O1 [DOX, Doxorubicin]
IC50 ([2]; 500 nM PU-H71 added sequentially 24 h after DOX, viability 24 h later): 75 nM
IC50 ([2]; DOX alone, DOX 24 h, viability measured 24 h later): 400 nM
effect on cell cycle ([3]; 24 h exposure to doses of DOX below the IC50): loss of S-phase fraction and accumulation in G2/M

CCNC(=O)c1noc(-c2cc(C(C)C)c(O)cc2O)c1-c1ccc(CN2CCOCC2)cc1 [NVP-AUY-922]
apoptotic sensitivity, type 1 tumors ([4]; 48 h): effectively killed
apoptotic sensitivity, type 2 tumors ([4]; 48 h): refractory

CC(C)NCCCn1c(Sc2cc3c(cc2I)OCO3)nc2c(N)ncnc21 [PU-H71, 8-(6-Iodo-benzo[1,3]dioxol-5-ylsulfanyl)-9-(3-isopropylamino-propyl)-9H-purin-6-ylamine]
effect on cell confluency, agent alone [5]: cytotoxic effect
remaining live cells and regrowth after removal of agents [5]: a few live cells and these cells start to regrow
relative binding affinity for HSP90 species ([6]; epichaperome / stress HSP90 vs housekeeping, normal cell HSP90): higher affinity for the stress HSP90 species; also recorded: higher affinity and selectivity
amount of epichaperome in the lysates ([6]; increasing amounts of PU-H71 attached to a solid support): dose-dependent reduction
single-agent anti-tumor effect [7]: most potent targeted single-agent anti-tumor effect yet reported
apoptosis / killing of tumors expressing stable multimeric epichaperome forms [8]: most effectively killed; also recorded: readily underwent apoptosis
sensitivity of adjacent benign tissue [8]: insensitive
sensitivity of tumors not enriched in the epichaperome (type 2) [8]: mostly unaffected; also recorded: far less sensitive
sensitivity of non-malignant lymphocytes in the AML samples [9]: insensitive
sensitivity of type 2 tumors [9]: mostly unaffected
killing of leukemias expressing stable multimeric epichaperome forms ([9]; n=40): most effectively killed
effect on cell cycle ([3]; 24 h exposure to 1 μM PU-H71): G1/S arrest
cell death ([4]; cells enriched in the epichaperome vs cells with lower levels, 1 μM, 48 h): more likely to die
sensitivity to killing ([4]; cells with AHA-1 levels reduced by siRNA, 24 h): less amenable to killing
adverse effects ([10]; Example 13: NCI-H1975, HCC1806 or MDA-MB-231 bearing mice, ip once a week, PU-H71 75 mg/kg, Abraxane 30 mg/kg): No adverse effects were observed
adverse effects ([10]; Example 14: MiaPaca2 bearing mice, Abraxane 30 mpk iv or ip 1x wk, PU-H71 75 mpk ip 1x or 2x wk, 40-day treatment): No adverse effects were observed
adverse effects ([10]; Example 15: HCC1806 bearing mice, Abraxane 30 mpk iv 1x wk, PU-H71 75 mpk ip 1x or 2x wk, 40-day treatment): No adverse effects were observed

CC1(C)CC(=O)c2c(C(F)(F)F)nn(-c3ccc(C(N)=O)c(N[C@H]4CC[C@H](O)CC4)c3)c2C1 [SNX2112]
apoptotic sensitivity, type 1 tumors ([4]; 48 h): effectively killed
apoptotic sensitivity, type 2 tumors ([4]; 48 h): refractory

CC(=O)O[C@H]1C(=O)[C@@]2(C)[C@H]([C@H](OC(=O)c3ccccc3)[C@]3(O)C[C@H](OC(=O)[C@H](O)[C@@H](NC(=O)c4ccccc4)c4ccccc4)C(C)=C1C3(C)C)[C@]1(OC(C)=O)CO[C@@H]1C[C@@H]2O [paclitaxel, reference compound]
effect on cell confluency, agent alone [5]: cytotoxic effect
remaining live cells and regrowth after removal of agents [5]: a few live cells and these cells start to regrow
time of decrease of epichaperome to endogenous levels [11]: ≤ 24 h
time of peak epichaperome levels [11]: 5 to 7 h

Reference: patent US20180280397A1, “RATIONAL COMBINATION THERAPY FOR THE TREATMENT OF CANCER” (Memorial Sloan Kettering Cancer Center, priority 2015, published 2018)
